Consider 15 molecules from ChEMBL document CHEMBL3286168, “Synthesis of 2'-O,4'-C-alkylene-bridged ribonucleosides and their evaluation as inhibitors of HCV NS5B polymerase” (Bioorg Med Chem Lett, 2014).

The target of series [1] is RNA-directed RNA polymerase (Hepacivirus hominis, UniProt O39930, S282T). The experiment in a line: Inhibition of purified Hepatitis C virus NS5B polymerase S282T mutant. Also on record: species or system Hepatitis C virus subtype 1b.
Series [2] is described as follows: Inhibition of purified wild type Hepatitis C virus 1b NS5B polymerase. On the set-up: species or system Hepatitis C virus subtype 1b.
Series [3] can be described thus: Cytotoxicity against human HuH7 cells up to 100 uM after 3 hrs by CellTiter-Blue cell viability assay. The class given is cell-based. Conditions: huh-7, 3 h.
The test system of the next series is Hepatitis C virus. The experiment in a line: Antiviral activity against wild type Hepatitis C virus genotype 1b infected in human HuH7 cells after 72 hrs by luciferase reporter gene assay. The class given is functional, cell-based, Hepacivirus hominis. The settings on record: Huh-7, 72 h. On the technique in general: Reporter assays use an easily measured gene product as a stand-in for the process of interest.

Series [4] concerns Hepatitis C virus subtype 1b. In words: Selectivity ratio of IC50 for Hepatitis C virus NS5B polymerase S282T mutant to wild type Hepatitis C virus 1b NS5B polymerase.
Series [5] can be described thus: Inhibition of purified wild type Hepatitis C virus 1a NS5B polymerase. On the set-up: species or system Hepatitis C virus subtype 1a.
The nature of series [6]: Inhibition of purified wild type Hepatitis C virus 4a NS5B polymerase. Also on record: species or system Hepatitis C virus subtype 4a.
Series [7] can be described thus: Inhibition of purified wild type Hepatitis C virus 3a NS5B polymerase. Also on record: species or system Hepatitis C virus subtype 3a.
Series [8] is described as follows: Inhibition of purified wild type Hepatitis C virus 2a NS5B polymerase. On the set-up: species or system Hepatitis C virus subtype 2a.

RNA-directed RNA polymerase, sequence (O39930 entry or part of it S282T): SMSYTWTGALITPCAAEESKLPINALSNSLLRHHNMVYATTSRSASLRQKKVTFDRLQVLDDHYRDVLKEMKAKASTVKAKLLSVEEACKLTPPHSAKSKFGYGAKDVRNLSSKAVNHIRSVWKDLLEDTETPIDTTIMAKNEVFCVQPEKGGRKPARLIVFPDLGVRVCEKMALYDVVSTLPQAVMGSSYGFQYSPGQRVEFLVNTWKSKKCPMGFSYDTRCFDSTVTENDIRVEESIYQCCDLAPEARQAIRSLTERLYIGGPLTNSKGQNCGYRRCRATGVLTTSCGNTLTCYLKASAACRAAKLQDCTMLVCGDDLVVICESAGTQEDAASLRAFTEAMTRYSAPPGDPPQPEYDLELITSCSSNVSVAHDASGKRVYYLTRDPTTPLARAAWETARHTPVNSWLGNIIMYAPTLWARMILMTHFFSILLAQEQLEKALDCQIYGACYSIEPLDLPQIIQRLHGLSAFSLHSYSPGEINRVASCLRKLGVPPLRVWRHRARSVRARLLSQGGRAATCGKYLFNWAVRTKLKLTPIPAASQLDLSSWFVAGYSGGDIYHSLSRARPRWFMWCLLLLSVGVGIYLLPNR

As to `CC(OP(=O)(O)OP(=O)(O)OP(=O)(O)O)[C@@]12CO[C@@H]([C@H](n3cnc4c(=O)[nH]c(N)nc43)O1)[C@@H]2O` (stereo in doubt; form 2), the IC50 in [1] and in series [2] was greater than 100 µM each time.
On to `Nc1ncnc2c1ncn2[C@@H]1O[C@@]2(CO)CO[C@@H]1[C@@H]2O`, for which the Activity result in [3] is listed as “Non-toxic”. Moreover, the EC50 with Hepatitis C virus is greater than 50 µM.
The corresponding values for `O=c1ccn([C@@H]2O[C@@]3(CO)CO[C@@H]2[C@@H]3O)c(=O)[nH]1` are “Non-toxic” and greater than 50 µM.
On to `C[C@]12OC[C@](COP(=O)(O)OP(=O)(O)OP(=O)(O)O)(O[C@H]1n1cnc3c(=O)[nH]c(N)nc31)[C@H]2O`, for which the concentration for half-maximal inhibition (IC50) in [1] is 0.48 µM; in series [2], 0.2 µM. The Ratio IC50 in series [4] is 2.
`C[C@]12OC[C@](CO)(O[C@H]1n1cnc3c(=O)[nH]c(N)nc31)[C@H]2O`: in series [3], the Activity result was “Non-toxic”. For the same molecule, the EC50 with Hepatitis C virus was greater than 50 µM.
As to `Nc1ncnc2c1ncn2[C@@H]1O[C@@]2(COP(=O)(O)OP(=O)(O)OP(=O)(O)O)CO[C@@H]1[C@@H]2O`, the IC50 in series [1] was determined as 86.3 µM; in [2], 39.8 µM.
As for `CC(OP(=O)(O)OP(=O)(O)OP(=O)(O)O)[C@@]12CO[C@@H]([C@H](n3cnc4c(=O)[nH]c(N)nc43)O1)[C@@H]2O` (stereo in doubt; form 1), the values for the IC50 in [1] and in [2] were 25.1 µM and 15.9 µM, respectively.
The like results for `Nc1ccn([C@@H]2O[C@@]3(COP(=O)(O)OP(=O)(O)OP(=O)(O)O)CO[C@@H]2[C@@H]3O)c(=O)n1` were, in that order, 1.44 µM and 1.39 µM.
`O=c1ccn([C@@H]2O[C@@]3(COP(=O)(O)OP(=O)(O)OP(=O)(O)O)CO[C@@H]2[C@@H]3O)c(=O)[nH]1`: the IC50 was found to be 12.8 µM in [1] and 3.84 µM in series [2].
Regarding `Nc1nc2c(ncn2[C@@H]2O[C@@]3(COP(=O)(O)OP(=O)(O)OP(=O)(O)O)CCO[C@@H]2[C@@H]3O)c(=O)[nH]1`, the IC50 in series [1] and in series [2] was greater than 100 µM throughout.
For the molecule `Nc1nc2c(ncn2[C@@H]2O[C@@]3(CO)CCO[C@@H]2[C@@H]3O)c(=O)[nH]1`, the Activity entry in [3] is given as “Non-toxic”. The molecule also had an EC50 with Hepatitis C virus greater than 50 µM.
With `Nc1nc2c(ncn2[C@@H]2O[C@@]3(COP(=O)(O)OP(=O)(O)OP(=O)(O)O)CO[C@@H]2[C@@H]3O)c(=O)[nH]1`, the half-maximal inhibitory concentration (IC50) in series [1] was 0.38 µM; in series [5], 0.37 µM; in [6], 0.31 µM; in series [7], 0.2 µM; in series [2] it was 0.39 µM; in series [8], 0.29 µM.
Regarding `Nc1nc2c(ncn2[C@@H]2O[C@@]3(CO)CO[C@@H]2[C@@H]3O)c(=O)[nH]1`, the Activity result in [3] is reported as “Non-toxic”. The same molecule registered an EC50 in the series with Hepatitis C virus greater than 50 µM.
The like results for `Nc1ccn([C@@H]2O[C@@]3(CO)CO[C@@H]2[C@@H]3O)c(=O)n1` were, in that order, “Non-toxic” and greater than 50 µM.
Regarding `CC(O)[C@@]12CO[C@@H]([C@H](n3cnc4c(=O)[nH]c(N)nc43)O1)[C@@H]2O` (mixture of isomers), in [3], the Activity result was “Non-toxic”. The molecule also showed a 50% effective concentration (EC50) in the series on Hepatitis C virus greater than 50 µM.

The IC50 is the midpoint of a concentration-inhibition curve. A lower IC50 goes with inhibition by little substance. A word on the EC50: it is the concentration at which the effect is half-maximal. Lower therefore signals a more potent agent.
